In brackets after ≈: the same amount, converted by molar mass. Where a SMILES comes first, the peptide text is derived from it.
Columns and labels:
Pseudomonas aeruginosa [1] = test: Synergistic antibacterial activity against Pseudomonas aeruginosa ATCC 27853 at 2 times MIC incubated for 18 to 24 hrs in presence of 2 times MIC of polymyxin B by broth microdilution assay based checkerboard assay; assay type: functional; conditions: time 18-24 hrs
Pseudomonas aeruginosa [2] = test: Synergistic antibacterial activity against Pseudomonas aeruginosa ATCC 27853 at 2 times MIC incubated for 18 to 24 hrs in presence of 2 times MIC of rifampicin by broth microdilution assay based checkerboard assay; assay type: functional; conditions: time 18-24 hrs
Klebsiella pneumoniae [3] = test: Antibacterial activity against Klebsiella pneumoniae ATCC 700603 incubated for 18 hrs by CLSI based broth dilution method; assay type: functional
Erythrocyte = test: Hemolytic activity in BALB/C mouse erythrocytes incubated for 1 hr by absorbance method; assay type: ADME, cell-based
Escherichia coli [4] = test: Antibacterial activity against Escherichia coli ATCC 25922 incubated for 18 hrs by CLSI based broth dilution method; assay type: functional
[5] = test system: Staphylococcus epidermidis; test: Antibacterial activity against Staphylococcus epidermidis ATCC 12228 incubated for 18 hrs by CLSI based broth dilution method; assay type: functional
Pseudomonas aeruginosa [6] = test: Antibacterial activity against Pseudomonas aeruginosa ATCC 27853 incubated for 18 hrs by CLSI based broth dilution method; assay type: functional
Acinetobacter baumannii = test: Antibacterial activity against Acinetobacter baumannii ATCC 19606 incubated for 18 hrs by CLSI based broth dilution method; assay type: functional; conditions: ATCC 19606 = CIP 70.34 = JCM 6841
Bacteria [7] = test: Antibacterial activity against bacteria incubated for 18 hrs by CLSI based broth dilution method; assay type: functional
Staphylococcus aureus [8] = test: Antibacterial activity against Staphylococcus aureus ATCC 25923 incubated for 18 hrs by CLSI based broth dilution method; assay type: functional
[9] = Selectivity ratio of MHC10 for BALB/C mouse erythrocytes to MIC for gram positive bacteria; assay type: toxicity
Fungi = test: Antibacterial activity against fungi incubated for 18 hrs by CLSI based broth dilution method; assay type: functional
[10] = Selectivity ratio of MHC10 for BALB/C mouse erythrocytes to MIC for gram-negative bacteria; assay type: toxicity
Bacteria [11] = test: Antibacterial activity against Gram-positive bacteria incubated for 18 hrs by CLSI based broth dilution method; assay type: functional
[12] = Selectivity ratio of MHC10 for BALB/C mouse erythrocytes to MIC for bacteria; assay type: toxicity
Enterococcus faecalis = test: Antibacterial activity against Enterococcus faecalis ATCC 29212 incubated for 18 hrs by CLSI based broth dilution method; assay type: functional
[13] = Cytotoxicity against human glomerular mesangial cells incubated for 12 hrs by MTT assay; assay type: cell-based; conditions: Glomerular mesangial cell
Bacteria [14] = test: Antibacterial activity against Gram-negative bacteria incubated for 18 hrs by CLSI based broth dilution method; assay type: functional
[15] = Selectivity ratio of MHC10 for BALB/C mouse erythrocytes to MIC for fungi; assay type: toxicity
Bacillus subtilis = test: Antibacterial activity against Bacillus subtilis ATCC 23857 incubated for 18 hrs by CLSI based broth dilution method; assay type: functional
Klebsiella pneumoniae [16] = test: Bactericidal activity against Klebsiella pneumoniae 700603 at 2MIC by time-kill assay relative to control; assay type: functional; conditions: 2M, TDE = time-dependent effect
Staphylococcus aureus [17] = test: Bactericidal activity against Staphylococcus aureus ATCC 25923 at 2MIC by time-kill assay; assay type: functional, organism-based; conditions: time 24.0 hrs, TDE = time-dependent effect
Escherichia coli [18] = test: Synergistic antibacterial activity against Escherichia coli ATCC 25922 at 2 times MIC incubated for 18 to 24 hrs in presence of 2 times MIC of polymyxin B by broth microdilution assay based checkerboard assay; assay type: functional; conditions: time 18-24 hrs
Klebsiella pneumoniae [19] = test: Synergistic antibacterial activity against Klebsiella pneumoniae ATCC 700603 at 2 times MIC incubated for 18 to 24 hrs in presence of 2 times MIC of gentamycin by broth microdilution assay based checkerboard assay; assay type: functional; conditions: time 18-24 hrs
Escherichia coli [20] = test: Synergistic antibacterial activity against Escherichia coli ATCC 25922 at 2 times MIC incubated for 18 to 24 hrs in presence of 2 times MIC of gentamycin by broth microdilution assay based checkerboard assay; assay type: functional; conditions: time 18-24 hrs
Klebsiella pneumoniae [21] = test: Synergistic antibacterial activity against Klebsiella pneumoniae ATCC 700603 at 2 times MIC incubated for 18 to 24 hrs in presence of 2 times MIC of rifampicin by broth microdilution assay based checkerboard assay; assay type: functional; conditions: time 18-24 hrs
Klebsiella pneumoniae [22] = test: Synergistic antibacterial activity against Klebsiella pneumoniae ATCC 700603 at 2 times MIC incubated for 18 to 24 hrs in presence of 2 times MIC of polymyxin B by broth microdilution assay based checkerboard assay; assay type: functional; conditions: time 18-24 hrs
Escherichia coli [23] = test: Synergistic antibacterial activity against Escherichia coli ATCC 25922 at 2 times MIC incubated for 18 to 24 hrs in presence of 2 times MIC of rifampicin by broth microdilution assay based checkerboard assay; assay type: functional; conditions: time 18-24 hrs

With `CC(C)C[C@H](NC(=O)[C@H](Cc1c[nH]c2ccccc12)NC(=O)CN)C(=O)N[C@@H](CCCCN)C(=O)N[C@@H](CCCNC(=N)N)C(=O)N[C@@H](Cc1c[nH]c2ccccc12)C(=O)N[C@@H](CCCCN)C(=O)N[C@H](C(=O)N[C@@H](CC(C)C)C(=O)N[C@@H](Cc1c[nH]c2ccccc12)C(N)=O)[C@@H](C)O` (H-GWLKRWKTLW-NH2) the FIC (Pseudomonas aeruginosa [1]) was 0.25, the FIC (Pseudomonas aeruginosa [2]) was 0.3125 and the MIC (Klebsiella pneumoniae [3]) was 16 µM (≈ 22 µg/mL). The MHC10 (Erythrocyte) was 320 µM, the MIC (Escherichia coli [4]) was 16 µM (≈ 22 µg/mL) and the MIC [5] was 32 µM (≈ 43.9 µg/mL). It also gave an MIC (Pseudomonas aeruginosa [6]) of 16 µM (≈ 22 µg/mL), an MIC (Acinetobacter baumannii) of 32 µM (≈ 43.9 µg/mL) and an MIC (Bacteria [7]) of 20.8 µM (≈ 28.5 µg/mL). It also gave an MIC (Staphylococcus aureus [8]) of 16 µM (≈ 22 µg/mL), a selectivity ratio at 18 h [9] of 11.9 and an MIC (Fungi) of 20.8 µM (≈ 28.5 µg/mL). It also gave a selectivity ratio [10] of 20, an MIC (Bacteria [11]) of 26.9 µM (≈ 36.9 µg/mL) and a selectivity ratio [12] of 15.4. For the same compound, the MIC (Enterococcus faecalis) was 64 µM (≈ 87.9 µg/mL), the IC50 [13] was 105 µM and the MIC (Bacteria [14]) was 16 µM (≈ 22 µg/mL). It also gave a selectivity ratio [15] of 15.4 and an MIC (Bacillus subtilis) of 16 µM (≈ 22 µg/mL).

Work on `CN[C@H](CC(C)C)C(=O)N[C@H]1C(=O)N[C@@H](CC(N)=O)C(=O)N[C@H]2C(=O)N[C@H]3C(=O)N[C@H](C(=O)N[C@H](C(=O)O)c4cc(O)cc(O)c4-c4cc3ccc4O)[C@H](O)c3ccc(c(Cl)c3)Oc3cc2cc(c3O[C@@H]2O[C@H](CO)[C@@H](O)[C@H](O)[C@H]2O[C@H]2C[C@](C)(N)[C@H](O)[C@H](C)O2)Oc2ccc(cc2Cl)[C@H]1O` [VANCOMYCIN] yielded an MIC (Klebsiella pneumoniae [3]) of no less than 128 µM, an MIC (Escherichia coli [4]) of 64 µM (≈ 92.8 µg/mL) and an MIC [5] of less than 1 µM. It also gave an MIC (Pseudomonas aeruginosa [6]) of 64 µM (≈ 92.8 µg/mL), an MIC (Acinetobacter baumannii) of less than 1 µM and an MIC (Staphylococcus aureus [8]) of less than 1 µM. For the same compound, the MIC (Enterococcus faecalis) was less than 1 µM, the Activity (Klebsiella pneumoniae [16]) was “Tde” and the MIC (Bacillus subtilis) was less than 1 µM. The Activity (Staphylococcus aureus [17]) was “Tde”.

Compound `CC[C@H](C)[C@H](NC(=O)[C@H](CCCNC(=N)N)NC(=O)[C@H](CCCCN)NC(=O)[C@H](Cc1c[nH]c2ccccc12)NC(=O)[C@H](Cc1c[nH]c2ccccc12)NC(=O)CN)C(=O)N[C@@H](CCCCN)C(=O)N[C@H](C(=O)N[C@@H](Cc1c[nH]c2ccccc12)C(=O)N[C@@H](Cc1c[nH]c2ccccc12)C(N)=O)[C@@H](C)O` (H-GWWKRIKTWW-NH2) has an FIC (Pseudomonas aeruginosa [1]) of 0.5, an FIC (Pseudomonas aeruginosa [2]) of 0.5 and an MIC (Klebsiella pneumoniae [3]) of 8 µM (≈ 11.6 µg/mL). For the same compound, the MHC10 (Erythrocyte) was 102.54 µM, the MIC (Escherichia coli [4]) was 8 µM (≈ 11.6 µg/mL) and the MIC [5] was 8 µM (≈ 11.6 µg/mL). It also gave an MIC (Pseudomonas aeruginosa [6]) of 8 µM (≈ 11.6 µg/mL), an MIC (Acinetobacter baumannii) of 8 µM (≈ 11.6 µg/mL) and an MIC (Bacteria [7]) of 7.34 µM (≈ 10.6 µg/mL). The MIC (Staphylococcus aureus [8]) was 4 µM (≈ 5.78 µg/mL), the selectivity ratio at 18 h [9] was 12.8 and the MIC (Fungi) was 7.34 µM (≈ 10.6 µg/mL). The selectivity ratio [10] was 15.3, the MIC (Bacteria [11]) was 8 µM (≈ 11.6 µg/mL) and the selectivity ratio [12] was 14. For the same compound, the MIC (Enterococcus faecalis) was 16 µM (≈ 23.1 µg/mL), the IC50 [13] was 25.2 µM and the MIC (Bacteria [14]) was 6.7 µM (≈ 9.69 µg/mL). It also gave a selectivity ratio [15] of 14 and an MIC (Bacillus subtilis) of 8 µM (≈ 11.6 µg/mL).

`CC(C)C[C@H](NC(=O)CN)C(=O)N[C@@H](Cc1c[nH]c2ccccc12)C(=O)N[C@@H](CCCCN)C(=O)N[C@@H](CCCNC(=N)N)C(=O)N[C@@H](Cc1c[nH]c2ccccc12)C(=O)N[C@@H](CCCCN)C(=O)N[C@@H](CCCCN)C(=O)N[C@@H](Cc1ccccc1)C(=O)N[C@@H](Cc1c[nH]c2ccccc12)C(N)=O` (H-GLWKRWKKFW-NH2) gave an FIC (Pseudomonas aeruginosa [1]) of 0.25, an FIC (Pseudomonas aeruginosa [2]) of 0.3125 and an MIC (Klebsiella pneumoniae [3]) of 8 µM (≈ 11.5 µg/mL). The MHC10 (Erythrocyte) was 83.63 µM, the MIC (Escherichia coli [4]) was 8 µM (≈ 11.5 µg/mL) and the FIC (Escherichia coli [18]) was 0.3125. For the same compound, the MIC [5] was 16 µM (≈ 22.9 µg/mL), the MIC (Pseudomonas aeruginosa [6]) was 8 µM (≈ 11.5 µg/mL) and the MIC (Acinetobacter baumannii) was 16 µM (≈ 22.9 µg/mL). It also gave an MIC (Bacteria [7]) of 10.4 µM (≈ 14.9 µg/mL), an FIC (Klebsiella pneumoniae [19]) of 0.75 and an MIC (Staphylococcus aureus [8]) of 8 µM (≈ 11.5 µg/mL). It also gave a selectivity ratio at 18 h [9] of 6.19, an MIC (Fungi) of 10.4 µM (≈ 14.9 µg/mL) and a selectivity ratio [10] of 10.4. The MIC (Bacteria [11]) was 13.5 µM (≈ 19.4 µg/mL), the FIC (Escherichia coli [20]) was 0.5 and the FIC (Klebsiella pneumoniae [21]) was 0.5625. It also gave a selectivity ratio [12] of 8.06, an MIC (Enterococcus faecalis) of 32 µM (≈ 45.9 µg/mL) and an IC50 [13] of 39 µM. The MIC (Bacteria [14]) was 8 µM (≈ 11.5 µg/mL), the selectivity ratio [15] was 8.06 and the MIC (Bacillus subtilis) was 8 µM (≈ 11.5 µg/mL). It also gave an FIC (Klebsiella pneumoniae [22]) of 0.5625 and an FIC (Escherichia coli [23]) of 0.5.

From ChEMBL document CHEMBL4823282, “Novel Broad-Spectrum Antimicrobial Peptide Derived from Anoplin and Its Activity on Bacterial Pneumonia in Mice” (J Med Chem, 2021)
